Experimental findings from US12240853B2, “Compounds useful in HIV therapy” (GlaxoSmithKline Intellectual Property (No.2) Limited, priority 2019, dated 2025) are described below.

For assay [1], the system named is HIV pseudotyped virus (NL4-3 provirus, luciferase reporter), WT. Briefly: PSV (pseudotyped virus) assay, WT. The following applies: Human immunodeficiency virus 1, NL43, 72 h, read-out: WT IC50.
Method: A pseudotyped virus assay (PSV) was used to assess the potency of the HIV inhibitor.
The PSV assay was performed by using U373 cells stably transformed to express human CD4, the primary receptor for HIV entry and either human CXCR4 or human CCR5 which are the co-receptors required for HIV entry as target cells for infection. […] This dose-range was applied to U373 cells and the pre-made pseudotyped virus added. The amount of luciferase signal produced after 3 days of culture was used to reflect the level of pseudotyped virus infection. An IC50, or the concentration of inhibitor required to reduce PSV infection by 50% from the infection containing no inhibitor was calculated. […] IC50 values were determined from a 10 point dose response curve using 3-4-fold serial dilution for each compound, which spans a concentration range>1000 fold.
These values are plotted against the molar compound concentrations using the standard four parameter logistic equation: y=((Vmax*x^n)/(K^n+x^n))+Y2
Assay [2] concerns HIV pseudotyped virus, M184V. It is filed as cell-based. As to conditions: U373 cells (CD4, CXCR4 or CCR5), luciferase signal after 3 days.

As a reminder, the IC50 is the point on the concentration scale where inhibition reaches its midpoint. `C#C[C@]1(COC(=O)C2CCCCC2)O[C@@H](n2cnc3c(N)nc(F)nc32)C[C@@H]1O` [Example 1, ((2R,3S,5R)-5-(6-amino-2-fluoro-9H-purin-9-yl)-2-ethynyl-3-hydroxytetrahydrofuran-2-yl)methyl Cyclohexanecarboxylate]: the concentration for half-maximal inhibition (IC50) in assay [1] is 0.002 µM; in assay [2] it was 0.008 µM.

On to `C#C[C@]1(COC(=O)c2ccccc2)O[C@@H](n2cnc3c(N)nc(F)nc32)C[C@@H]1O` [Example 2, ((2R,3S,5R)-5-(6-amino-2-fluoro-9H-purin-9-yl)-2-ethynyl-3-hydroxytetrahydrofuran-2-yl)methyl Benzoate], for which the IC50 was 0.003 µM in assay [1] and 0.013 µM in assay [2].

Regarding `C#C[C@]1(COC(=O)Cc2ccccc2)O[C@@H](n2cnc3c(N)nc(F)nc32)C[C@@H]1O` [Example 3, [(2R,3S,5R)-5-(6-amino-2-fluoro-9H-purin-9-yl)-2-ethynyl-3-hydroxyoxolan-2-yl]methyl 2-phenylacetate], the values for the IC50 in assay [1] and in assay [2] were 0.002 µM and 0.01 µM, respectively.

On to `C#C[C@]1(COC(=O)[C@H]2CC[C@H](C(C)(C)C)CC2)O[C@@H](n2cnc3c(N)nc(F)nc32)C[C@@H]1O` [Example 4, ((2R,3S,5R)-5-(6-amino-2-fluoro-9H-purin-9-yl)-2-ethynyl-3-hydroxytetrahydrofuran-2-yl)methyl trans-4-(tert-butyl)cyclohexane-1 carboxylate], for which the IC50 in assay [1] is 0.003 µM; in assay [2], 0.017 µM.

With `C#C[C@]1(COC(=O)[C@H]2CC[C@H](CCCCC)CC2)O[C@@H](n2cnc3c(N)nc(F)nc32)C[C@@H]1O` [Example 5, ((2R,3S,5R)-5-(6-amino-2-fluoro-9H-purin-9-yl)-2-ethynyl-3-hydroxytetrahydrofuran-2-yl)methyl trans-4-pentylcyclohexane-1-carboxylate], the IC50 in assay [1] worked out at 0.001 µM; in assay [2] it was 0.007 µM.

As to `C#C[C@]1(COC(=O)COCCOC)O[C@@H](n2cnc3c(N)nc(F)nc32)C[C@@H]1O` [Example 6, ((2R,3S,5R)-5-(6-amino-2-fluoro-9H-purin-9-yl)-2-ethynyl-3-hydroxytetrahydrofuran-2-yl)methyl 2-(2-methoxyethoxy)acetate], the figures for the concentration for half-maximal inhibition (IC50) in assay [1] and in assay [2] were 0.004 µM and 0.025 µM, respectively.

Take `C#C[C@]1(COC(=O)COCCOCCOC)O[C@@H](n2cnc3c(N)nc(F)nc32)C[C@@H]1O` [Example 7, ((2R,3S,5R)-5-(6-amino-2-fluoro-9H-purin-9-yl)-2-ethynyl-3-hydroxytetrahydrofuran-2-yl)methyl 2-(2-(2-methoxyethoxy)ethoxy)acetate]: the results for the IC50 in assay [1] and in assay [2] were 0.004 µM and 0.024 µM, respectively.

With `C#C[C@]1(COC(=O)COCCOCCCC)O[C@@H](n2cnc3c(N)nc(F)nc32)C[C@@H]1O` [Example 8, ((2R,3S,5R)-5-(6-amino-2-fluoro-9H-purin-9-yl)-2-ethynyl-3-hydroxytetrahydrofuran-2-yl)methyl 2-(2-butoxyethoxy)acetate], the results for the IC50 in assay [1] and in assay [2] were 0.002 µM and 0.011 µM, respectively.

As to `C#C[C@]1(COC(=O)CCCCCCCCC(=O)O)O[C@@H](n2cnc3c(N)nc(F)nc32)C[C@@H]1O` [Example 9, 10-(((2R,3S,5R)-5-(6-amino-2-fluoro-9H-purin-9-yl)-2-ethynyl-3-hydroxytetrahydrofuran-2-yl)methoxy)-10-oxodecanoic Acid], the half-maximal inhibitory concentration (IC50) amounted to 0.035 µM in assay [1] and 0.167 µM in assay [2].

For `C#C[C@]1(COC(=O)CCCCCCCCCCCCC(=O)O)O[C@@H](n2cnc3c(N)nc(F)nc32)C[C@@H]1O` [Example 10, 14-(((2R,3S,5R)-5-(6-amino-2-fluoro-9H-purin-9-yl)-2-ethynyl-3-hydroxytetrahydrofuran-2-yl)methoxy)-14-oxotetradecanoic Acid], the concentration for half-maximal inhibition (IC50) in assay [1] came to 0.009 µM; in assay [2], 0.044 µM.

For `C#C[C@]1(COC(=O)CCCCCCCCCCCCCCCCCCC(=O)O)O[C@@H](n2cnc3c(N)nc(F)nc32)C[C@@H]1O` [Example 11, 20-(((2R,3S,5R)-5-(6-amino-2-fluoro-9H-purin-9-yl)-2-ethynyl-3-hydroxytetrahydrofuran-2-yl)methoxy)-20-oxoicosanoic Acid], the results for the IC50 in assay [1] and in assay [2] were 0.008 µM and 0.037 µM, respectively.

`C#C[C@]1(COC(=O)CCCC(=O)OC(COC(=O)CCCCCC)COC(=O)CCCCCC)O[C@@H](n2cnc3c(N)nc(F)nc32)C[C@@H]1O` [Example 12, ((2R,3S,5R)-5-(6-amino-2-fluoro-9H-purin-9-yl)-2-ethynyl-3-hydroxytetrahydrofuran-2-yl)methyl (1,3-bis(heptanoyloxy)propan-2-yl) glutarate]: the figures for the concentration for half-maximal inhibition (IC50) in assay [1] and in assay [2] were 0.034 µM and 0.151 µM, respectively.

For `C#C[C@]1(COC(=O)CCCC(=O)OC(COC(=O)CCCCCCCCCCCCC)COC(=O)CCCCCCCCCCCCC)O[C@@H](n2cnc3c(N)nc(F)nc32)C[C@@H]1O` [Example 13, ((2R,3S,5R)-5-(6-amino-2-fluoro-9H-purin-9-yl)-2-ethynyl-3-hydroxytetrahydrofuran-2-yl)methyl 1,3-bis(tetradecanoyloxy)propan-2-yl) glutarate], the results for the IC50 in assay [1] and in assay [2] were 0.508 µM and 3.61 µM, respectively.

On to `C#C[C@]1(COC(=O)CCCC(=O)OCCCCCCCCCCCCCC)O[C@@H](n2cnc3c(N)nc(F)nc32)C[C@@H]1O` [Example 14, ((2R,3S,5R)-5-(6-amino-2-fluoro-9H-purin-9-yl)-2-ethynyl-3-hydroxytetrahydrofuran-2-yl)methyl Tetradecyl Glutarate], for which the IC50 in assay [1] worked out at 0.033 µM; in assay [2], 0.148 µM.

With `C#C[C@]1(COC(=O)CCCCCCCCC)O[C@@H](n2cnc3c(N)nc(F)nc32)C[C@@H]1OC(=O)OCC` [Example 15, ((2R,3S,5R)-5-(6-amino-2-fluoro-9H-purin-9-yl)-3-((ethoxycarbonyl)oxy)-2-ethynyltetrahydrofuran-2-yl)methyl Decanoate], the IC50 in assay [1] came out at 0.077 µM; in assay [2], 0.328 µM.

`C#C[C@]1(COC(=O)CCCCCC)O[C@@H](n2cnc3c(N)nc(F)nc32)C[C@@H]1OC(=O)CCCCCC` [Example 16, (2R,3S,5R)-5-(6-amino-2-fluoro-9H-purin-9-yl)-2-ethynyl-2-((heptanoyloxy)methyl)tetrahydrofuran-3-yl Heptanoate]: the IC50 came to 0.008 µM in assay [1] and 0.031 µM in assay [2].

Turning to `C#C[C@]1(COC(=O)CCCCCCCCCCCCC)O[C@@H](n2cnc3c(N)nc(F)nc32)C[C@@H]1OC(=O)CCCCCCCCCCCCC` [Example 17, (2R,3S,5R)-5-(6-amino-2-fluoro-9H-purin-9-yl)-2-ethynyl-2-((tetradecanoyloxy)methyl)tetrahydrofuran-3-yl Tetradecanoate], the IC50 in assay [1] amounted to 1.74 µM; in assay [2], 10.3 µM.

As for `C#C[C@]1(COC(=O)CCCC)O[C@@H](n2cnc3c(N)nc(F)nc32)C[C@@H]1OC(=O)CCCCCCCCCCCC` [Example 19, (2R,3S,5R)-5-(6-amino-2-fluoro-9H-purin-9-yl)-2-ethynyl-2-((pentanoyloxy)methyl)tetrahydrofuran-3-yl Tridecanoate], the IC50 in assay [1] was found to be 0.018 µM; in assay [2], 0.087 µM.

For the compound `C#C[C@]1(COC(=O)CCCC)O[C@@H](n2cnc3c(N)nc(F)nc32)C[C@@H]1OC(=O)CCCCCC` [Example 20, (2R,3S,5R)-5-(6-amino-2-fluoro-9H-purin-9-yl)-2-ethynyl-2-((pentanoyloxy)methyl)tetrahydrofuran-3-yl Heptanoate], the 50% inhibitory concentration (IC50) in assay [1] was 0.005 µM; in assay [2], 0.025 µM.

`C#C[C@]1(COC(=O)CCCC)O[C@@H](n2cnc3c(N)nc(F)nc32)C[C@@H]1OC(=O)CCCCCCCCCC` [Example 21, (2R,3S,5R)-5-(6-amino-2-fluoro-9H-purin-9-yl)-2-ethynyl-2-((pentanoyloxy)methyl)tetrahydrofuran-3-yl Undecanoate]: the results for the concentration for half-maximal inhibition (IC50) in assay [1] and in assay [2] were 0.007 µM and 0.044 µM, respectively.

Take `C#C[C@]1(COC(=O)CCCC)O[C@@H](n2cnc3c(N)nc(F)nc32)C[C@@H]1OC(=O)CCCCCCCC` [Example 22, (2R,3S,5R)-5-(6-amino-2-fluoro-9H-purin-9-yl)-2-ethynyl-2-((pentanoyloxy)methyl)tetrahydrofuran-3-yl Nonanoate]: the values for the IC50 in assay [1] and in assay [2] were 0.007 µM and 0.035 µM, respectively.

For the compound `C#C[C@]1(COC(=O)CCCC)O[C@@H](n2cnc3c(N)nc(F)nc32)C[C@@H]1OC(=O)CCCC` [Example 23, (2R,3S,5R)-5-(6-amino-2-fluoro-9H-purin-9-yl)-2-ethynyl-2-((pentanoyloxy)methyl)tetrahydrofuran-3-yl Pentanoate], the IC50 was determined as 0.011 µM in assay [1] and 0.068 µM in assay [2].

On to `C#C[C@]1(COC(=O)CCCC)O[C@@H](n2cnc3c(N)nc(F)nc32)C[C@@H]1OC(=O)CC` [Example 24, ((2R,3S,5R)-5-(6-amino-2-fluoro-9H-purin-9-yl)-2-ethynyl-3-(propionyloxy)tetrahydrofuran-2-yl)methyl Pentanoate], for which the values for the IC50 in assay [1] and in assay [2] were 0.066 µM and 0.351 µM, respectively.

On to `C#C[C@]1(COC(=O)CCCC)O[C@@H](n2cnc3c(NC(=O)CCC)nc(F)nc32)C[C@@H]1O` [Example 25, ((2R,3S,5R)-5-(6-butyramido-2-fluoro-9H-purin-9-yl)-2-ethynyl-3-hydroxytetrahydrofuran-2-yl)methyl Pentanoate], for which the IC50 is 0.021 µM in assay [1] and 0.186 µM in assay [2].

In the case of `C#C[C@]1(COC(=O)CCCC)O[C@@H](n2cnc3c(NC(=O)CCCCCCC)nc(F)nc32)C[C@@H]1O` [Example 26, ((2R,3S,5R)-2-ethynyl-5-(2-fluoro-6-octanamido-9H-purin-9-yl)-3-hydroxytetrahydrofuran-2-yl)methyl Pentanoate], the IC50 in assay [1] stood at 0.007 µM; in assay [2] it was 0.028 µM.

Consider `C#C[C@]1(COC(=O)CCCC)O[C@@H](n2cnc3c(NC(=O)CCCCCCCCCCCCC)nc(F)nc32)C[C@@H]1O` [Example 27, ((2R,3S,5R)-2-ethynyl-5-(2-fluoro-6-tetradecanamido-9H-purin-9-yl)-3-hydroxytetrahydrofuran-2-yl)methyl Pentanoate], for which the values for the half-maximal inhibitory concentration (IC50) in assay [1] and in assay [2] were 0.008 µM and 0.046 µM, respectively.
